According to the supplement of paper PMC11061612:

How the values were obtained:
Experiment in all cases: combination Emax (second highest fraction inhibited in the dose matrix, 72 h); higher = more inhibition; extreme values may be limits of the assay
[1] = tested on: PFSK-1 (Other Solid Carcinomas)
In short: (§1)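 Cell lines in DMEM/F12 or RPMI with 10% FBS were plated in 1536-well plates, held 24 hours at 37°C, 5% CO2, then given two-drug dose matrices for 72 hours (DMSO typically 0.2%). Viability was read by CellTiter-Glo 2.0 luminescence and scaled as inhibition from 0 (vehicle wells) to 1 (blank wells). Combination Emax is the second-highest inhibition in the matrix; Bliss excess is observed combination effect minus expected EA + EB − EA·EB, EA and EB being single-agent effects.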

[2] = tested on: KYSE-150 (Esophageal Squamous Cell Carcinoma)
In short: as §1

[3] = tested on: OCUM-1 (Gastric Carcinoma)
In short: as §1

[4] = tested on: DG-75 (Burkitt's Lymphoma)
In short: as §1

[5] = tested on: NCI-H513 (Other Solid Carcinomas)
In short: as §1

[6] = tested on: PF-382 (T-Lymphoblastic Leukemia)
In short: as §1

[7] = tested on: LOU-NH91 (Squamous Cell Lung Carcinoma)
In short: as §1

[8] = tested on: VMRC-LCD (Lung Adenocarcinoma)
In short: as §1

[9] = tested on: ASH-3 (Thyroid Gland Carcinoma)
In short: as §1

GI-1 (Glioblastoma) = tested on: GI-1 (Glioblastoma)
In short: as §1

[10] = tested on: KINGS-1 (Low Grade Glioma)
In short: as §1

[11] = tested on: KYSE-50 (Esophageal Squamous Cell Carcinoma)
In short: as §1

[12] = tested on: OVISE (Ovarian Carcinoma)
In short: as §1

[13] = tested on: EMC-BAC-2 (Non-Small Cell Lung Carcinoma)
In short: as §1

[14] = tested on: NCI-H2347 (Lung Adenocarcinoma)
In short: as §1

[15] = tested on: LC4-1 (B-Lymphoblastic Leukemia)
In short: as §1

[16] = tested on: KP-2 (Pancreatic Carcinoma)
In short: as §1

GOTO (Neuroblastoma) = tested on: GOTO (Neuroblastoma)
In short: as §1

NH-12 (Neuroblastoma) = tested on: NH-12 (Neuroblastoma)
In short: as §1

[17] = tested on: BV-173 (Chronic Myelogenous Leukemia)
In short: as §1

Structure (SMILES) | combination Emax [1] | combination Emax [2] | combination Emax [3] | combination Emax [4] | combination Emax [5] | combination Emax [6] | combination Emax [7] | combination Emax [8] | combination Emax [9] | combination Emax (GI-1 (Glioblastoma)) | combination Emax [10] | combination Emax [11] | combination Emax [12] | combination Emax [13] | combination Emax [14] | combination Emax [15] | combination Emax [16] | combination Emax (GOTO (Neuroblastoma)) | combination Emax (NH-12 (Neuroblastoma)) | combination Emax [17]
CC1(C)CCC(CN2CCN(c3ccc(C(=O)NS(=O)(=O)c4ccc(NCC5CCOCC5)c([N+](=O)[O-])c4)c(Oc4cnc5[nH]ccc5c4)c3)CC2)=C(c2ccc(Cl)cc2)C1 [Venetoclax] + COc1cc(Nc2ncc3c(n2)-c2ccc(Cl)cc2C(c2c(F)cccc2OC)=NC3)ccc1C(=O)O [Alisertib] (first compound max 1 µM, 7x7, partner max 10 µM) | 0.477 | 0.516 | 0.51 | 0.518 | 0.234 | 0.905 | 0.479 | 0.619 | 0.476 | 0.506 | 0.379 | 0.537 | 0.578 | 0.507 | 0.18 | 1 | 0.267 | 0.719 | 0.977 | 0.971
CC1(C)CCC(CN2CCN(c3ccc(C(=O)NS(=O)(=O)c4ccc(NCC5CCOCC5)c([N+](=O)[O-])c4)c(Oc4cnc5[nH]ccc5c4)c3)CC2)=C(c2ccc(Cl)cc2)C1 [Venetoclax] + C[C@@H]1COCCN1C2=NC(=NC(=C2)C3(CC3)[S@](=N)(=O)C)C4=C5C=CNC5=NC=C4 [AZD6738] (first compound max 1 µM, 7x7, partner max 10 µM) | 0.685 | 0.628 | 0.672 | 0.781 | 0.356 | 0.927 | 0.411 | 0.537 | 0.57 | 0.918 | 0.344 | 0.719 | 0.677 | 0.612 | 0.402 | 1 | 0.277 | 0.966 | 0.968 | 0.954
CC1(C)CCC(CN2CCN(c3ccc(C(=O)NS(=O)(=O)c4ccc(NCC5CCOCC5)c([N+](=O)[O-])c4)c(Oc4cnc5[nH]ccc5c4)c3)CC2)=C(c2ccc(Cl)cc2)C1 [Venetoclax] + C[C@@H](Nc1cc(F)cc(F)c1)c1cc(C(=O)N(C)C)cc2c(=O)cc(N3CCOCC3)oc12 [AZD8186] (first compound max 1 µM, 7x7, partner max 3 µM) | 0.194 | 0.161 | 0.137 | 0.386 | 0.17 | 0.202 | 0.221 | 0.093 | 0.332 | 0.28 | 0.332 | 0.18 | 0.238 | 0.2 | 0.189 | 1 | 0.0788 | 0.305 | 0.612 | 0.82
CC1(C)CCC(CN2CCN(c3ccc(C(=O)NS(=O)(=O)c4ccc(NCC5CCOCC5)c([N+](=O)[O-])c4)c(Oc4cnc5[nH]ccc5c4)c3)CC2)=C(c2ccc(Cl)cc2)C1 [Venetoclax] + Cc1cc2ncnn2cc1Nc1ncc2c(n1)n(C1CCOCC1)c(=O)n2C [AZD7648] (first compound max 1 µM, 7x7, partner max 10 µM) | 0.489 | 0.572 | 0.216 | 0.317 | 0.297 | 0.355 | 0.264 | 0.179 | 0.263 | 0.238 | 0.329 | 0.217 | 0.275 | 0.271 | 0.194 | 1 | 0.175 | 0.434 | 0.538 | 0.811
CC1(C)CCC(CN2CCN(c3ccc(C(=O)NS(=O)(=O)c4ccc(NCC5CCOCC5)c([N+](=O)[O-])c4)c(Oc4cnc5[nH]ccc5c4)c3)CC2)=C(c2ccc(Cl)cc2)C1 [Venetoclax] + Cn1cnc2c(F)c(Nc3ccc(Br)cc3Cl)c(C(=O)NOCCO)cc21 [Selumetinib] (first compound max 1 µM, 7x7, partner max 3 µM) | 0.171 | 0.273 | 0.918 | 0.257 | 0.228 | 0.18 | 0.246 | 0.109 | 0.294 | 0.179 | 0.262 | 0.133 | 0.206 | 0.347 | 0.344 | 1 | 0.455 | 0.236 | 0.777 | 0.906
